# Results taken from patent US12578273B2, “Ph-reversible leuco-BODIPY probe for in situ visualization of extracellular vesicles and their secretion from living cells” (The Chinese University of Hong Kong, priority 2021, dated 2026).
# Legend:
# Assay type in all cases: cell-based
# A549 cells [1] = assay: Cytotoxicity of the probe (alamarBlue cell viability); conditions: 2 μM, 0.1% DMSO, 12 h
# Protocol: (§1) FIGS. 28A-28C Cytotoxicity of the probe. Pre-seeded in 96-well plates, HEK293, HeLa, and A549 cells were incubated in complete DMEM containing different concentrations of leuco-BODIPY [dissolved in dimethyl sulfoxide (DMSO)] for 12 h. The alamarBlue reagent (Invitrogen) was used to test cell viability by measuring the optical absorbance at 570 nm and 600 nm by a Multiskan GO UV-absorbance microplate reader. Reported data represent mean±SD from three independent experiments.
# (§2) We studied the mechanism for the cellular uptake of our probe by a pharmacological approach.
# HEK293 cells [2] = assay: as above; conditions: 2 μM, 0.1% DMSO, 12 h
# Protocol: as §1, §2
# HeLa cells [3] = assay: as above; conditions: 2 μM, 0.1% DMSO, 12 h
# Protocol: as §1, §2
# A549 cells [4] = assay: Pathway for the cellular entry of the probe (NaN3 or 4 °C block of energy-dependent endocytosis); conditions: 5 μM probe, 30 min
# Protocol: (§3) FIGS. 29A-29F Pathway for the cellular uptake of the probe. The cells were either (FIGS. 29A-29C) treated with sodium azide (NaN3) or (FIGS. 29D-29F) incubated at 4° C. for blocking energy-dependent endocytosis (red bars). Cells under normal cell culture conditions (37° C. without NaN3) serve as the positive control (green bars). Statistical analysis was conducted by two-tailed Student's t test. Not significant (ns) P>0.05. Error bar indicates standard deviation.
# (§4) Cells were firstly cultured in a 96-well plate and allowed to reach about 90% confluence. In our first experiment, the cells were either pretreated in 0.1 mL of complete DMEM containing 5 mM NaN3 (Sigma) at 37° C. for 3 h. After that, the medium was replaced by 0.1 mL of complete medium containing 5 mM NaN3 and 5 μM leuco-BODIPY (in 0.5% DMSO) at 37° C. for another 30 min. In our second experiment, the cells were preincubated with 0.1 mL of complete DMEM inside a 4° C. refrigerator for 30 min. After that, the medium was replaced by 0.1 mL of complete medium containing 5 μM leuco-BODIPY (in 0.5% DMSO) for another 30 min and incubated at 4° C. As the […], cells were incubated with 0.1 mL of complete medium containing 5 μM leuco-BODIPY (in 0.5% DMSO) at 37° C. for 30 min. At the end of both experiments, the fluorescence of the treated cells was measured by a microplate reader (ThermoFisher Fluoroskan Ascent, Waltham, MA) at an excitation wavelength of 584 nm and emission wavelength of 612 nm.
# as §2
# HEK293 cells [5] = assay: as above; conditions: 5 μM probe, 30 min
# Protocol: as §3, §4, §2
# HeLa cells [6] = assay: as above; conditions: 5 μM probe, 30 min
# Protocol: as §3, §4, §2
# [7] = system: EVs secreted by A549 cells; assay: Estimation of the fluorescence signal per EV; conditions: 5 μM leuco-BODIPY, 30 min, excitation 584 nm, emission 612 nm, net fluorescence divided by number of EVs (NTA)
# Protocol: (§5) Cells were pre-seeded in a 96-well plate in complete DMEM without phenol red. During the experiment, 200 μL of either fresh complete DMEM without phenol red or 5 μM leuco-BODIPY formulated in fresh complete DMEM without phenol red was added to the cells. After 30 min, the medium was collected and centrifuged for 10 min at 200×g to remove any dye-stained cell debris. The fluorescence signal in the medium was measured by a fluorescent plate reader (ThermoFisher Fluoroskan Ascent) at an excitation wavelength of 584 nm and emission wavelength of 612 nm. The net fluorescence in the dye-treated EV sample was determined by subtracting the background fluorescence of the untreated EV sample from the fluorescence of the dye-treated EV sample. Complete DMEM without phenol red was also used as a control to determine the background fluorescence of the blank culture medium. After the microplate reader experiment, each EV sample was made up to a total of 1 mL by adding DMEM without phenol red, followed by injection into a Malvern Nanosight NS500 instrument for measuring the total number of EVs in the sample. […] The fluorescence signal per EV was estimated by dividing (1) the net fluorescence (with background subtraction) of the EV sample as measured by the microplate reader by (2) the number of EVs in the sample as measured by NTA.
# (§6) Moreover, we incubated the three cell types with our probe for 30 min, isolated the EVs secreted to the culture medium, centrifuged the collected medium to remove any dye-stained cell fragments, and confirmed the detection of fluorescence in the isolated EVs (Table 1). By contrast, for the EVs isolated from the same cell types under the same culture conditions but without treatment by our probe, the fluorescence detected was at the background level of blank culture medium.
# (§7) Table 1: Estimate of the number of signals per EV. The fluorescence signal per EV is expressed in arbitrary units (a.u.), a relative value that highly depends on pH, dye concentration, and laser power. […]
# [8] = system: EVs secreted by HEK293 cells; assay: Estimation of the fluorescence signal per EV; conditions: 5 μM leuco-BODIPY, 30 min, excitation 584 nm, emission 612 nm, net fluorescence divided by number of EVs (NTA)
# Protocol: as §5, §6, §7
# [9] = system: EVs secreted by HeLa cells; assay: Estimation of the fluorescence signal per EV; conditions: 5 μM leuco-BODIPY, 30 min, excitation 584 nm, emission 612 nm, net fluorescence divided by number of EVs (NTA)
# Protocol: as §5, §6, §7
# [10] = pretreatment with sodium azide (5 mM)
smiles,measurement,setting,value
CCOC(=O)C(=Cc1ccc2n1[B-](F)(F)n1c(C=C(C(=O)OCC)C(=O)OCC)ccc1C2(OC)c1ccncc1)C(=O)OCC [leuco-BODIPY],cell viability,A549 cells [1],did not severely reduce cell viability
same,cell viability,HEK293 cells [2],did not severely reduce cell viability
same,cell viability,HeLa cells [3],did not severely reduce cell viability
same,cellular uptake of the probe,A549 cells [4]; preincubation at 4 °C,did not significantly affect
same,cellular uptake of the probe,A549 cells [4]; [10],did not significantly affect
same,cellular uptake of the probe,HEK293 cells [5]; preincubation at 4 °C,did not significantly affect
same,cellular uptake of the probe,HEK293 cells [5]; [10],did not significantly affect
same,cellular uptake of the probe,HeLa cells [6]; preincubation at 4 °C,did not significantly affect
same,cellular uptake of the probe,HeLa cells [6]; [10],did not significantly affect
same,Mean fluorescence signal per EV,[7],4.17 × 10^−7 a.u.
same,Mean fluorescence signal per EV,[8],1.67 × 10^−6 a.u.
same,Mean fluorescence signal per EV,[9],4.63 × 10^−7 a.u.
